Entries after “also recorded” stand apart in the source; their conditions may differ. Ends that are not written are not given here.
Tests used:
hATP6V1B2 = hATP6V1B2 (Homo sapiens, UniProt P21281); test: Co-immunoprecipitation of Myc-tagged hATP6V1B2 with GFP-tagged QD202 and site mutants (HEK 293 lysates, western blot); assay type: binding; conditions: expressed from pEGFP-N3 plasmids in HEK 293, anti-GFP IP, FIG. 7A, 7B
Description: Expression plasmids of hATP6V1B2, QD202, site-mutated QD202(D15A), site-mutated QD202(V16A), site-mutated QD202(P13A), and site-mutated QD202(V14A) were constructed respectively. The hATP6V1B2 was co-transfected into HEK 293 cells with the expression plasmids of QD202, site-mutated QD202(D15A), site-mutated QD202(V16A), site-mutated QD202(P13A) and site-mutated QD202(V14A), respectively, and cellular proteins were extracted 48 h after transfection. Table 1: Plasmid sequences
Protein extraction was performed using Pierce RIPA lysis buffer. Taking cells in a 60 mm culture dish as an example, 500 µL of Pierce RIPA lysis buffer containing protease inhibitors was added. Cells were collected and transferred to a clean 1.5 mL EP tube using a cell scraper. After mixing for 1 h on a rotary mixer at 4°C, the cells were centrifuged at 13,000 rpm at 4°C for 10 min to remove cell debris. The hATP6V1B2 was equally divided into […], which were then mixed separately with the cell lysates transfected with QD202, site-mutated QD202(P13A), site-mutated QD202(V14A), site-mutated QD202(D15A), and site-mutated QD202(V16A), 30 µL of the supernatant was taken and mixed with 10 µL of 4× loading buffer, followed by boiling at 100°C for 5 min and storage at -20°C; 2 µL of the antibody (Anti-GFP, Roche, 11814460001) was added to the remaining 470 µL of the protein lysate, and the mixture was incubated overnight (about 16-18 h) on a rotary shaker at 4°C. 30 µL of Protein G Sepharose beads (Roche, 11243233001) were placed in an EP tube and washed three times with Pierce RIPA lysis buffer to eliminate interference from the original stock solution. The protein that had been incubated with the antibody overnight was added to the Sepharose beads, followed by mixing and incubation at 4°C for 2 h to ensure sufficient binding between the antibody and the protein. The mixture was centrifuged at 4000 rpm for 1 min. The supernatant was aspirated off, followed by the addition of 600 µL of Pierce RIPA lysis buffer. The tube was gently inverted, followed by centrifugation to collect the supernatant. The above steps were repeated three times to wash away non-specifically bound proteins. Finally, 30 µL of 1×loading buffer was added, the mixture was mixed well, heated at 60°C for 20 min to denature the protein, and then stored at -20°C. The protein was examined by western blot (Myc-Tag (9B11) Mouse mAb, CST, 2276S; Anti-GFP, Roche, 11814460001).
The hATP6V1B2 was co-transfected into the host cell line HEK 293 with the expression plasmids of QD202, site-mutated QD202(P13A), site-mutated QD202(V14A), site-mutated QD202(D15A) and site-mutated QD202(V16A), respectively. […] It is therefore hypothesized that valine at position 16 of QD202 is one of the key amino acids for the binding between hATP6V1B2 and QD202, whereas proline at position 13, valine at position 14 and aspartic acid at position 15 can be replaced with alanine, as illustrated in FIG. 7A and FIG. 7B.

[1] = tested on: hippocampal CA1 pyramidal neurons; test: Whole-cell patch-clamp recording of spontaneous excitatory postsynaptic current (sEPSC) in hippocampal brain sections; assay type: cell-based, C57 mouse; conditions: 5 µM polypeptide applied for 5 min; clamp voltage -70 mV; FIGS. 8A-8C
Excerpt: • Polypeptide QD202 was synthesized according to the amino acid sequence set forth in SEQ ID NO: 1. • Polypeptide QD202 N'-1 was synthesized according to the amino acid sequence set forth in SEQ ID NO: 2. • Polypeptide QD202 C'-1 was synthesized according to the amino acid sequence set forth in SEQ ID NO: 3. • Polypeptide QD202 C'-2 was synthesized according to the amino acid sequence set forth in SEQ ID NO: 4. • Polypeptide SS8 was synthesized according to the amino acid sequence set forth in SEQ ID NO: 54.
0.1-0.15 ml of 20% ethyl carbamate was injected into the abdominal cavity of a C57 mouse of 2 to 3 months old for anesthesia; a head was quickly cut, and brain tissues were stripped and put into artificial cerebrospinal fluid (ACSF) ice-water mixed liquid into which mixed gas (95%O2 and 5%CO2) was introduced in advance, and stood for 2 min; the ACSF included the following components: […] of NaCl, […] of KCl, 0.12 mM of NaH2PO4, […] of CaCl2, 0.12 mM of MgCl2, 25 mM of NaHCO3 and 11 mM of glucose. A hippocampus coronal brain section of […] was cut by a vibration slicer. […] The recorded data were analyzed by Minianalysis software.

APP/PS1 transgenic mice [2] = test: Novel object recognition test in AD mice; assay type: in vivo; conditions: continuously for 1 week
APP/PS1 transgenic mice [3] = test: Morris water maze test in AD mice; assay type: in vivo; conditions: continuously for 1 week
Male SD rats = conditions: rat, in vivo

Chain of hATP6V1B2 (P21281 whole entry): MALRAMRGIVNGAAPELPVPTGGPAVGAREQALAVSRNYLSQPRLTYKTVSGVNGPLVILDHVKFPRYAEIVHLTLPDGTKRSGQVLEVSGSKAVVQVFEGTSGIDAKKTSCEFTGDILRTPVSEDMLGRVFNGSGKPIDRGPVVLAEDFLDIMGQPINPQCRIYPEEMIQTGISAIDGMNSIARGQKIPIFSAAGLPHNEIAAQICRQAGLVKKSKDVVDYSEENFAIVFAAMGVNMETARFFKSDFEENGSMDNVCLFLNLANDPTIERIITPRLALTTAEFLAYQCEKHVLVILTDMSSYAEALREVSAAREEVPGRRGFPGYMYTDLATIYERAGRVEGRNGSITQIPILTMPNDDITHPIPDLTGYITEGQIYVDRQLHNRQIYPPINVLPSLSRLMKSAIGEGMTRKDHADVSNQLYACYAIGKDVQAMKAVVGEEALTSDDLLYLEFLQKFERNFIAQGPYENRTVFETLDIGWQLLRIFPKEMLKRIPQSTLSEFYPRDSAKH

With “QD202: Polypeptide synthesized according to the amino acid sequence set forth in SEQ ID NO: 1; ATP6V1B2 regulator / DIR regulator (YGRKKRRQRRRSPVDVVCS; not fully specified)” the “binding to Myc-tagged hATP6V1B2 (co-immunoprecipitation)” value (hATP6V1B2) was “bind to”, the “excitatory postsynaptic current amplitude” value [1] was “no influence” and the “release frequency of excitatory postsynaptic current” value [1] was “increasing”. For the same substance, the “learning and cognitive functions in the novel object recognition test” value (APP/PS1 transgenic mice [2]; intragastric, 6.25 mg/kg, ten-month-old APP/PS1 mice, FIG. 9) was “obvious improvement of learning and cognitive functions”, the “learning and cognitive functions in novel object recognition” value (APP/PS1 transgenic mice [2]; intravenous injection, 1.25 mg/kg, APP/PS1 mice of 10 months old, FIG. 11) was “obvious improvement on learning and cognitive functions” and the “learning and cognitive functions in the water maze behavior” value (APP/PS1 transgenic mice [3]; intragastric, 6.25 mg/kg, ten-month-old APP/PS1 mice, FIG. 10) was “obvious improvement of learning and cognitive functions”. The “learning and cognitive functions in water maze behavior” value (APP/PS1 transgenic mice [3]; intravenous injection, 1.25 mg/kg, APP/PS1 mice of 10 months old, FIG. 12) was “obvious improvement on learning and cognitive functions” and the neurobehavioral score (Male SD rats) was “lower than that of the Model + QD202 placebo group with a statistical difference (p<0.05); also recorded: lower than that of the Model + QD202 placebo group with extremely significant statistical differences (p<0.001)”.
